Measurements from PMC5365648, “Pharmacokinetics of the Novel Echinocandin CD101 in Multiple Animal Species” (Antimicrobial Agents and Chemotherapy, 2017).
Where two headings read alike, the source gives them in different places. Starred links: 1 amine or outer side, 2 acyl side, 3 side chain; linkers in the order of their positions; H or OH if unused. Positions of bridges follow the written chain, without caps; N, C: chain ends. Non-standard residues stand in square brackets, D forms with d. Residues, ends and D or L forms follow the SMILES beside them. *: point of attachment. Orn(4R-OH,5R-OCH2CH2NMe3+) = C[N+](C)(C)CCO[C@@H](N[*:3])[C@H](O)C[C@H](N[*:1])C(=O)[*:2]; pTerphenylCO(4''-OnC5H11) = CCCCCOc1ccc(-c2ccc(-c3ccc(C(=O)*)cc3)cc2)cc1; hTyr(3S-OH,4S-OH) = N[C@H](C(=O)O)[C@H](O)[C@@H](O)c1ccc(O)cc1; Pro(3S-OH,4S-Me) = C[C@H]1CN[C@H](C(=O)O)[C@H]1O; Hyp = O=C(O)[C@@H]1C[C@@H](O)CN1

What was measured:
[1] = Dog pharmacokinetics, i.v. bolus; conditions: in vivo, iv, male beagle dogs, single 1.4 mg/kg slow i.v. bolus, plasma, LC-MS/MS, noncompartmental
Experimental: (§1) For each of the pharmacokinetic studies, whole-blood samples (K3EDTA as anticoagulant) were collected and centrifuged within 30 min of collection. The resulting plasma was harvested and stored at −20°C until analysis. Tissue samples were homogenized by a bead-based homogenizer following the addition of deionized water to excised tissue in a 2:1 (vol/wt) ratio and stored at −20°C until analysis. Prior to analysis, plasma or homogenized tissue samples were quenched with acetonitrile (3:1, acetonitrile-plasma or tissue ratio) containing an appropriate internal standard (isotopically labeled d9-CD101 [mouse and rat] or a structural analog [dog, monkey, and chimpanzee]). Plasma and tissue homogenate concentrations (quantified against calibration standards processed the same way) were determined by reverse-phase, gradient liquid chromatography with tandem mass spectrometric detection (LC-MS/MS) using an AB-SCIEX API 3200Q/4000 mass spectrometry system. Calibration standard ranges were the following: 0.400 (lower limit of quantitation, [LLOQ]) to 200 μg/ml (CD101, mouse), 0.040 (LLOQ) to 10 μg/ml (anidulafungin, mouse), 0.002 (LLOQ) to 10 μg/ml (CD101, rat), 0.005 (LLOQ) to 10 μg/ml (anidulafungin, rat), 0.050 (LLOQ) to 10 μg/ml (CD101, dog), 0.020 (LLOQ) to 10 μg/ml (anidulafungin, dog), 0.010 (LLOQ) to 10 μg/ml (CD101, monkey), 0.001 (LLOQ) to 10 μg/ml (anidulafungin, monkey), 0.015 (LLOQ) to 10 μg/ml (CD101, chimpanzee), and 0.015 (LLOQ) to 10 μg/ml (anidulafungin, chimpanzee). When necessary, dilutions with blank matrix were made for samples that quantified above the upper limit of quantitation. The methods used in the analysis were qualified as fit for purpose: calibration standards were matrix matched with the exception that human plasma calibration standards were used to analyze chimpanzee plasma samples due to the rarity of blank chimpanzee plasma, and, for each analytical batch, triplicate calibration standards were included at the beginning, approximately in the middle, and at the end of the batch. Following analysis, quantitation was carried out by a calibration curve comprising the analyte/internal standard area ratio versus concentration. Analytical batch acceptance followed the general guidance that triplicate standards/quality controls be within ±20% for accuracy (percentage of nominal concentration) and ≤20% for precision (percent coefficient of variation).
(§2) Pharmacokinetic parameters were calculated by noncompartmental analysis using Phoenix WinNonlin (version 6.3; Pharsight, Mountain View, CA) from either individual or mean (mouse) concentration-time profiles. An unpaired t test was used to compare mean exposures from male and female rats.

[2] = Chimpanzee pharmacokinetics, i.v. infusion; type: in vivo, chimpanzees
Experimental: A single 1-mg/kg dose of CD101 or anidulafungin was administered by i.v. infusion (1 h) to female chimpanzees (n = 2/group), and blood samples (via peripheral vein) were drawn for plasma processing at the midpoint of infusion, at the end of infusion, at 2, 4, 8, 12, 24, 48, and 72 h postdose, and on days 5, 7, and 10 postdose.
as §1, §2

[3] = Mouse pharmacokinetics, i.v. bolus; conditions: in vivo, iv, male ICR (CD-1) mice, single 1 mg/kg slow i.v. bolus, plasma, LC-MS/MS, noncompartmental from mean profile, n = 3/time point
Experimental: A single 1-mg/kg dose of CD101 or anidulafungin was administered by slow i.v. bolus (∼2 min) to male ICR (CD-1) mice (n = 3/group/time point). Blood samples (via cardiac puncture) were collected for plasma processing predose and at 0.083 (5 min), 0.5, 1, 4, 8, 24, 48, and 72 h postdose. PK profiles were generated based on mean results from the three animals sampled at each time point. In another study, a single 1-, 4-, or 16-mg/kg dose of CD101 was administered by i.p. injection to female ICR (CD-1) mice (n = 3/time point/dose), and blood samples (via cardiac puncture) were drawn for plasma processing at 1, 3, 6, 12, 24, 48, 72, and 96 h postdose.
as §1, §2

[4] = Excretion in bile duct-cannulated rats; type: in vivo, Sprague-Dawley rats; conditions: for dose excreted at 120 h: bile duct-cannulated male Sprague-Dawley rats, single 5 mg/kg i.v. bolus, over 5 days, n = 3
Experimental: In one of three rat studies reported here, a single 5-, 15-, or 45-mg/kg dose of CD101 was administered by slow i.v. bolus (∼3 min) to Sprague-Dawley rats (n = 3 to 5/dose). Blood samples (via jugular vein catheter [JVC]) were drawn for plasma processing at 0.083, 0.25, 0.5, 1, 2, 4, 8, 24, 48, 120, 168, and 240 h after dosing. In the second rat study, conducted to assess tissue distribution, a single 5-mg/kg dose of CD101 was administered by slow i.v. bolus (∼3 min) to male Sprague-Dawley rats (n = 3 animals/time point). Blood samples (via cardiac puncture) were collected for plasma processing predose and at 0.083, 0.5, 1, 2, 4, 8, 24, 48, 72, 96, and 120 h postdose. In parallel with blood collection, animals were euthanized, and tissues (liver, lungs, kidneys, heart, spleen, and brain) were excised and frozen prior to analysis. In the third rat study, conducted to assess excretion, a single 5-mg/kg dose of CD101 was administered by slow i.v. bolus (∼3 min) to bile duct-cannulated male Sprague-Dawley rats (n = 3). Bile samples were collected from each animal into prelabeled bile collection tubes predose and at 0 to 8, 8 to 24, 24 to 48, 48 to 72, 72 to 96, and 96 to 120 h postdose; urine samples were collected from each animal at the same time points pre- and postdose.
as §1, with “Analytical batch acceptance followed the general guidance that triplicate standards/quality controls be within ±20% for accuracy (percentage of nominal concentration) and ≤20% for precision (percent coefficient of variation).” left out

[5] = in vivo, iv, female chimpanzees, single 1 mg/kg i.v. infusion (1 h), plasma, LC-MS/MS, noncompartmental, n = 2

With `CCCCCOc1ccc(-c2ccc(-c3ccc(C(=O)N[C@H]4C[C@@H](O)[C@@H](OCC[N+](C)(C)C)NC(=O)[C@@H]5[C@@H](O)[C@@H](C)CN5C(=O)[C@H]([C@@H](C)O)NC(=O)[C@H]([C@H](O)[C@@H](O)c5ccc(O)cc5)NC(=O)[C@@H]5C[C@@H](O)CN5C(=O)[C@H]([C@@H](C)O)NC4=O)cc3)cc2)cc1` [CD101] ({pTerphenylCO(4''-OnC5H11)}-[Orn(4R-OH,5R-OCH2CH2NMe3+)]T[Hyp][hTyr(3S-OH,4S-OH)]T[Pro(3S-OH,4S-Me)]; lactam 1-C) the AUC(0-t) ([1]; n = 4) was 48.7 µg·h/mL, the Cmax ([1]; n = 4) was 1570 ng/mL and the Tmax ([1]; n = 4) was 4.98 min. For the same compound, the clearance ([1]; n = 4, read-out: CL (clearance)) was 0.301 mL/min/kg, the “clearance fold lower than anidulafungin” value ([2]; chimpanzee, 1 mg/kg i.v. infusion, 0.06 versus 0.42 ml/min/kg, n = 2/group) was “over 7 fold” and the “t1/2 fold longer than anidulafungin” value ([2]; chimpanzee, 1 mg/kg i.v. infusion, 81 versus 30 h, n = 2/group) was 2.7 fold. It also gave an AUC(0-inf) [2, 5] of 302 µg·h/mL, an AUC(0-t) [2, 5] of 290 µg·h/mL and a Cmax [2, 5] of 7150 ng/mL. The Tmax [2, 5] was 1 h, the half-life [2, 5] was 80.7 h and the clearance ([2]; in vivo, iv, female chimpanzees, single 1 mg/kg i.v. infusion (1 h), plasma, LC-MS/MS, noncompartmental, n = 2, read-out: CL (clearance)) was 0.0568 mL/min/kg. It also gave a Vd ([2]; in vivo, iv, female chimpanzees, single 1 mg/kg i.v. infusion (1 h), plasma, LC-MS/MS, noncompartmental, n = 2, read-out: Vss (volume of distribution at steady state)) of 0.4 L/kg, an AUC(0-inf) [3] of 166 µg·h/mL and an AUC(0-t) [3] of 87.3 µg·h/mL. It also gave a Cmax [3] of 9290 ng/mL, a Tmax [3] of 4.98 min and a half-life [3] of 25.2 h. The clearance ([3]; read-out: CL (clearance)) was 0.102 mL/min/kg, the Vd ([3]; read-out: Vss (volume of distribution at steady state)) was 0.206 L/kg and the dose excreted ([4]; male, Sprague-Dawley, rat, bile plus faeces, iv, bile duct-cannulated rats, 5 mg/kg i.v., bile plus feces) was ~50%. The “biotransformation in plasma, bile samples, and excreta” value ([4]; nonradiolabeled material, rats, data not shown) was “no biotransformation was observed”, the dose excreted at 120 h ([4]; rat, faeces, iv, intact drug, read-out: mean cumulative amount excreted into feces, % of total dose) was 27.7% and the dose excreted at 120 h ([4]; rat, iv, intact drug, read-out: mean cumulative amount excreted into bile, % of total dose) was 22.6%. It also gave a dose excreted at 120 h ([4]; rat, urine, iv, read-out: total dose recovered in urine) of 1.4%.
